Data on twelve compounds can be found in PMC11510342, “Synthesis, Characterization, Bioavailability and Antimicrobial Studies of Cefuroxime-Based Organic Salts and Ionic Liquids” (Pharmaceutics, 2024).

The test system of data set [1] is Escherichia coli (ATCC 25922). The experiment in a line: Antimicrobial activity, growth inhibition (OD 600 nm). The following applies: for IC50: read-out: IC50 E. coli. It is filed as cell-based.
Experimental: (§1) The antimicrobial activity of compounds was evaluated against Bacillus subtilis (ATCC 6633), Pseudomonas aeruginosa (ATCC 27853) and Escherichia coli (ATCC 25922) grown in Lysogeny broth (Sigma, Darmstadt, Germany).
Data set [2] concerns Pseudomonas aeruginosa (ATCC 27853). The data set is described as above. The class given is cell-based. As to conditions: for IC50: read-out: IC50 P. aeruginosa.
Experimental: as §1
Data set [3] deals with Bacillus subtilis (ATCC 6633). Described as above. The class given is cell-based. The following applies: for IC50: read-out: IC50 B. subtilis.
Experimental: as §1
The subject of a further data set is 3T3 murine fibroblasts. The experiment in a line: Cytotoxicity on 3T3 cells (MTT assay). The class given is cell-based. As to conditions: 24 h; for Toxicity to 3T3 murine fibroblasts compared with the original drug (CFX): 100 µM; for IC50: read-out: IC50 for toxicity on 3T3 murine fibroblasts. (Formazan colour is commonly taken as a measure of viable cells.)
Data set [4] in a line: Water solubility at 37 °C by consecutive addition of water until full dissolution. It is filed as physicochemical. The protocol:
The solubility of the prepared cefuroxime OSILs was determined by adding known volumes of water consecutively to a certain amount of CFX-OSILs at 37 °C until full dissolution was observed. Figure 3 presents the maximum water solubility values of the prepared CFX-OSILs.

Data set [5] in a line: Octanol-water partition studies (Kow). The class given is physicochemical.
The conditions of data set [6]: cited from earlier work.
[7] abbreviates: 6 h, 0.03–100 µM, interval in brackets.
The mark [8] stands for this setting: Escherichia coli, ATCC25922, 6 h, 0.03–100 µM, interval in brackets.
Where [9] appears, read: Pseudomonas aeruginosa, ATCC27853, 6 h, 0.03–100 µM, interval in brackets.
The mark [10] stands for this setting: Bacillus subtilis, ATCC6633, 6 h, 0.03–100 µM, interval in brackets.
The mark [11] stands for this setting: Mus musculus, Fibroblast, MTT, 1–100 µM.

Where two headings read alike, the source gives them in different places. Where only a bound is given, the exact number is not on record here.

Experimental for 3T3 murine fibroblasts: Cytotoxic activities were evaluated on 3T3 cells previously acquired from Leibniz Institute DSMZ, Germany biobank (ACC173). Cells were cultured in Dulbecco’s Modified Eagle’s medium: Nutrient Mix F-12 (DMEM/F-12) (Merck, Darmstadt, Germany) supplemented with 10% fetal bovine serum (Gibco, Grand Island, NY, USA), 100 IU/mL penicillin and 100 μg/mL streptomycin (Sigma, St. Louis, MO, USA). For subculture, 3T3 cells were dissociated using trypsin-EDTA (Sigma, USA) with a split 1:5 ratio and seeded into Petri dishes with 25 cm^2 of growth area. Culture medium was replaced every 2 days until cells reached total confluence after 3–5 days of initial seeding. Cells were maintained in a humidified atmosphere with 5% CO2 at 37 °C. The effects on 3T3 cells’ viability were evaluated after cells reached total confluence. […] The effects were estimated via MTT (Sigma, St. Louis, MO, USA) assays as a cellular metabolic activity colorimetric analysis. Results were expressed in percentage of control (%).

Turning to `CCCCCC[n+]1ccccc1.CO/N=C(\C(=O)N[C@@H]1C(=O)N2C(C(=O)[O-])=C(COC(N)=O)CS[C@H]12)c1ccco1` [[C6Py][CFX]], the IC50 (usually the concentration that gives 50% inhibition) is 26.8 µM in data set [1] (setting [7]); 3.99 µM in data set [2] (setting [7]); 8.85 µM in data set [3] (setting [7]); more than 100 µM in the data set with 3T3 murine fibroblasts (MTT, 1–100 µM). In the data set with 3T3 murine fibroblasts (MTT), the “Toxicity to 3T3 murine fibroblasts compared with the original drug (CFX)” value (“Toxicity … compared with the original drug (CFX)” below) is recorded as “no additional detrimental effect”.
In the case of `CO/N=C(\C(=O)N[C@@H]1C(=O)N2C(C(=O)O)=C(COC(N)=O)CS[C@H]12)c1ccco1` [CFX, Cefuroxime], the IC50 in data set [1] (setting [8]) was 6.42 µM; in data set [2] (setting [9]), 0.55 µM; in data set [3] (setting [10]) it was 0.95 µM; in the data set with 3T3 murine fibroblasts (setting [11]) it was more than 100 µM. The solubility (in general, the concentration that dissolves in the medium under given conditions) in data set [4] (water, 37 °C) is less than 700 µg/mL.
As for `CCCCCCCCCC[n+]1ccccc1` [[C10Py]Br, reference compound], the IC50 in data set [1] (setting [8]) is more than 100 µM; in data set [2] (setting [9]) it was 95.5 µM; in data set [3] (setting [10]) it was 80.9 µM; with 3T3 murine fibroblasts (setting [11]) it was 98 µM.
With `CCCCCC[n+]1ccccc1` [[C6Py]Br, reference compound], the IC50 (in data set [1] (setting [8]); in data set [2] (setting [9]); in data set [3] (setting [10]); in the data set on 3T3 murine fibroblasts (setting [11])) was more than 100 µM in each case.
`CCCCCCCCCCCCCCCC[n+]1ccccc1.CO/N=C(\C(=O)N[C@H]1C(=O)N2C(C(=O)[O-])=C(COC(N)=O)CS[C@@H]12)c1ccco1` [[C16Py][CFX]]: the IC50 in data set [1] (setting [7]) was found to be 9.66 µM; in data set [2] (setting [7]), 4.54 µM; in data set [3] (setting [7]), 5.08 µM; in the data set with 3T3 murine fibroblasts (MTT, 1–100 µM), 11.7 µM. Moreover, the “Increase in water solubility relative to free CFX” value in data set [4] is on record as more than 7.7 fold. This compound also gave a Water solubility in data set [4] of 5500 µg/mL. In the data set with 3T3 murine fibroblasts (MTT), the “Toxicity … compared with the original drug (CFX)” value is recorded as “more toxic”. Besides, in data set [5], the “Octanol-water partition (Kow)” value was 2.5.
For the compound `c1cc[n+](CCCCCCCCCC[n+]2ccccc2)cc1` [[PyC10Py]Br2, decylbispyridinium dibromide, reference compound], the IC50 in data set [1] (Escherichia coli, ATCC25922, 6 h) was more than 100 µM; in data set [2] (Pseudomonas aeruginosa, ATCC27853, 6 h), more than 100 µM; in data set [3] (Bacillus subtilis, ATCC6633, 6 h) it was more than 100 µM; with 3T3 murine fibroblasts (Mus musculus, Fibroblast), more than 100 µM.
For the compound `CCCCCCCCCCCCCCCC[n+]1ccn(C)c1` [[C16MIM]Br, reference compound], the 50% inhibitory concentration (IC50) is 11.3 µM in data set [1] (setting [8]), 4.81 µM in data set [2] (setting [9]), 5.19 µM in data set [3] (setting [10]) and 13.3 µM in the data set on 3T3 murine fibroblasts (setting [11]).
Consider `CO/N=C(\C(=O)N[C@@H]1C(=O)N2C(C(=O)O)=C(COC(N)=O)CS[C@H]12)c1ccco1` [cefuroxime sodium], for which the Serum concentration in data set [6] (single 500 mg intramuscular dose, for a period of 2.5 to 3 h) was 8000 ng/mL. The Half-life in data set [6] (single 500 mg intramuscular dose) is 1.17 h.
For the compound `CCCCCCCCCCCCCCCC[n+]1ccn(C)c1.CO/N=C(\C(=O)N[C@@H]1C(=O)N2C(C(=O)[O-])=C(COC(N)=O)CS[C@H]12)c1ccco1` [[C16MIM][CFX]], the concentration for half-maximal inhibition (IC50) in data set [1] (setting [7]) was 9.23 µM; in data set [2] (setting [7]), 4.02 µM; in data set [3] (setting [7]) it was 2.65 µM; in the data set on 3T3 murine fibroblasts (MTT, 1–100 µM), 13.9 µM. The compound also had a Water solubility in data set [4] of 11000 µg/mL. Also, the “Toxicity … compared with the original drug (CFX)” value with 3T3 murine fibroblasts (MTT) is listed as “more toxic”. Further, the “Octanol-water partition (Kow)” value in data set [5] worked out at 1.7.
For the compound `CCCCCCCCCC[n+]1ccccc1.CO/N=C(\C(=O)N[C@@H]1C(=O)N2C(C(=O)[O-])=C(COC(N)=O)CS[C@H]12)c1ccco1` [[C10Py][CFX]], the IC50 in data set [1] (setting [7]) came to 90.3 µM; in data set [2] (setting [7]), 16.6 µM; in data set [3] (setting [7]), 23 µM; with 3T3 murine fibroblasts (MTT, 1–100 µM), 62.5 µM. In data set [4], the “Increase in water solubility relative to free CFX” value was more than 7.7 fold. Besides, in data set [4], the Water solubility worked out at 5400 µg/mL. Further, the “Toxicity … compared with the original drug (CFX)” value with 3T3 murine fibroblasts (MTT) is listed as “more toxic”. In the data set on 3T3 murine fibroblasts (MTT), the “Relative toxicity on 3T3 cells (comparison of IC50 values)” value is on record as “approximately five-times less toxic”. Moreover, in data set [5], the “Kow in comparison with the original drug (CFX)” value was “approximately four-times greater”.
For the compound `CO/N=C(\C(=O)N[C@@H]1C(=O)N2C(C(=O)OC(C)OC(C)=O)=C(COC(N)=O)CS[C@H]12)c1ccco1` (some centres unmarked) [cefuroxime axetil], in data set [6] (after oral administration), the “Time of peak concentration in serum” value is on record as “approximately 2 h”.
`CO/N=C(\C(=O)N[C@@H]1C(=O)N2C(C(=O)[O-])=C(COC(N)=O)CS[C@H]12)c1ccco1.CO/N=C(\C(=O)N[C@@H]1C(=O)N2C(C(=O)[O-])=C(COC(N)=O)CS[C@H]12)c1ccco1.c1cc[n+](CCCCCCCCCC[n+]2ccccc2)cc1` [[PyC10Py][CFX]2]: the IC50 is 4.92 µM in data set [1] (setting [7]); 0.66 µM in data set [2] (setting [7]); 0.85 µM in data set [3] (setting [7]); more than 100 µM with 3T3 murine fibroblasts (MTT, 1–100 µM). Also, the “Antimicrobial activity against E. coli compared with CFX” value in data set [1] (times more effective than CFX) is recorded as 1.3. This compound also registered a Water solubility in data set [4] (water, 37 °C) of 140000 µg/mL. In addition, in data set [2], the “Antimicrobial activity against P. aeruginosa compared with CFX” value is on record as “comparable activity to CFX”. In addition, in data set [3], the “Antimicrobial activity against B. subtilis compared with CFX” value was “comparable activity to CFX”. Also, the “Toxicity … compared with the original drug (CFX)” value in the data set with 3T3 murine fibroblasts (MTT) was “no additional detrimental effect”.
